Test results reported in patent US20180162862A1 (President and Fellows of Harvard College, priority 2015, published 2018).
Converted amounts (≈) assume the structure as drawn. Where two headings read alike, the source gives them in different places.

Key:
Assay type in all cases: cell-based
S. aureus ATCC 29213 = assay: MIC test according to CLSI M7-A9, S. aureus ATCC 29213; conditions: Staphylococcus aureus, ATCC29213, CLSI M7-A9, CAMHB
Protocol: (§1) MIC Test (S. aureus ATCC 29213, S. aureus ATCC 43300 and S. aureus Newman)
(§2) Susceptibility testing of S. aureus ATCC 29213, ATCC 43300 and Newman was performed according to Clinical Laboratory Standard Institute (CLSI) guidelines M7-A9. Test articles were stored at room temperature prior to use, then dissolved in filtered sterile DMSO. Stock DMSO solutions were diluted further in cation-adjusted Mueller Hinton broth (CAMHB) to provide appropriate test concentrations. Cultures of S. aureus (ATCC 29213, ATCC 43300 or Newman) were added in accordance with CLSI guidelines and plates incubated at 37° C. in air for 24 h. Endpoints were determined visually (and by spectrophotometer at 600 nm) and the minimum inhibitory concentration (MIC) defined as the lowest concentration of test articles resulting in complete inhibition of visible bacterial growth. Results are detailed in Table 2 (S. aureus ATCC 29213 and ATCC 43300) and Table 3 (S. aureus ATCC 29213, ATCC 43300 and Newman).

S. aureus ATCC 43300 = assay: MIC test according to CLSI M7-A9, S. aureus ATCC 43300; conditions: Staphylococcus aureus, ATCC43300; CLSI M7-A9, CAMHB, 24 h (Table 2); read-out: S. aureus ATCC 43300 MIC at 24 h
Protocol: as §1, §2

S. aureus Newman = assay: MIC test according to CLSI M7-A9, S. aureus Newman; conditions: Staphylococcus aureus, CLSI M7-A9, CAMHB, 24 h (Table 3), read-out: S. aureus ATCC Newman MIC
Protocol: as §1, §2

[1] = 24 h (Table 2), read-out: S. aureus ATCC 29213 MIC at 24 h
[2] = 24 h (Table 3), read-out: S. aureus ATCC 29213 MIC

| MIC (S. aureus ATCC 29213; [1]) | MIC (S. aureus ATCC 43300) | MIC (S. aureus ATCC 29213; [2]) | MIC (S. aureus Newman) | SMILES |
| --- | --- | --- | --- | --- |
| 32 µg/mL (≈ 68 µM) | 128 µg/mL (≈ 272 µM) | – | – | CC(C)(C)c1ccc(-c2nc(NC3CCN(C(=O)c4ccccc4)CC3)n3[nH]c(=O)cc3n2)cc1 [Example 63, 4-[(1-benzoylpiperidin-4-yl)amino]-2-(4-tert-butylphenyl)-6H,7H-pyrazolo[1,5-a][1,3,5]triazin-7-one] |
| 128 µg/mL (≈ 277 µM) | > 128 µg/mL | – | – | CC(C)(C)c1ccc(-c2nc(NC3CCN(C(=O)c4nnc[nH]4)CC3)n3[nH]c(=O)cc3n2)cc1 [Example 64, 2-(4-tert-butylphenyl)-4-{[11-(4H-1,2,4-triazole-3-carbonyl)piperidin-4-yl]amino}-6H,7H-pyrazolo[1,5-a][1,3,5]triazin-7-one] |
| 4 µg/mL (≈ 8.33 µM) | 4 µg/mL (≈ 8.33 µM) | – | – | Cc1cc(OCCC(C)Nc2nc(-c3ccc(C(C)(C)C)cc3)nc3cc(=O)[nH]n23)ccc1Cl (stereo not drawn) [Example 65, 2-(4-tert-butylphenyl)-4-{[4-(4-chloro-3-methylphenoxy)butan-2-yl]amino}-6H,7H-pyrazolo[1,5-a][1,3,5]triazin-7-one] |
| 4 µg/mL (≈ 8.28 µM) | 2 µg/mL (≈ 4.14 µM) | – | – | Cc1cc(NCC(F)CNc2nc(-c3ccc(C(C)(C)C)cc3)nc3cc(=O)[nH]n23)ccc1Cl (stereo not drawn) [Example 66, 2-(4-tert-butylphenyl)-4-({3-[(4-chloro-3-methylphenyl)amino]-2-fluoropropyl}amino)-6H,7H-pyrazolo[1,5-a][1,3,5]triazin-7-one] |
| > 64 µg/mL | > 64 µg/mL | – | – | Cc1ccc(-c2nc(NCCCOc3ccc(Cl)c(C)c3)n3[nH]c(=O)cc3n2)cc1 [Example 67, 4-{[3-(4-chloro-3-methylphenoxy)propyl]amino}-2-(4-methylphenyl)-6H,7H-pyrazolo[1,5-a][1,3,5]triazin-7-one] |
| 32 µg/mL (≈ 77.2 µM) | > 32 µg/mL | – | – | Cc1ccc(-c2nc(NC3CCN(Cc4ccccc4)CC3)n3[nH]c(=O)cc3n2)cc1 [Example 69, 4-[(1-benzylpiperidin-4-yl)amino]-2-(4-methylphenyl)-6H,7H-pyrazolo[1,5-a][1,3,5]triazin-7-one] |
| 8 µg/mL (≈ 16.5 µM) | 8 µg/mL (≈ 16.5 µM) | – | – | Cc1cc(OCCCNc2nc(-c3ccc(C(C)(C)C)cc3)nc3c(F)c(=O)[nH]n23)ccc1Cl [Example 71, 2-(4-tert-butylphenyl)-4-{[3-(4-chloro-3-methylphenoxy)propyl]amino}-8-fluoro-6H,7H-pyrazolo[1,5-a][1,3,5]triazin-7-one] |
| – | – | 4 µg/mL (≈ 8.76 µM) | 4 µg/mL (≈ 8.76 µM) | CC(C)(C)c1ccc(-c2nc(NCCCN3CCCc4ccccc43)n3[nH]c(=O)cc3n2)cc1 [Example 76, 2-(4-tert-butylphenyl)-4-{[3-(1,2,3,4-tetrahydroquinolin-1-yl)propyl]amino}-6H,7H-pyrazolo[1,5-a][1,3,5]triazin-7-one] |
| – | – | 64 µg/mL (≈ 161 µM) | 64 µg/mL (≈ 161 µM) | CC(C)(C)c1ccc(-c2nc(N3CCN(CCO)CC3)n3[nH]c(=O)cc3n2)cc1 [Example 77, 2-(4-tert-butylphenyl)-4-[4-(2-hydroxyethyl)piperazin-1-yl]-6H,7H-pyrazolo[1,5-a][1,3,5]triazin-7-one] |
| – | – | 32 µg/mL (≈ 70.7 µM) | 32 µg/mL (≈ 70.7 µM) | CCCCN(CCCC)CCCNc1nc(-c2ccc(C(C)(C)C)cc2)nc2cc(=O)[nH]n12 [Example 78, 2-(4-tert-butylphenyl)-4-{[3-(dibutylamino)propyl]amino}-6H,7H-pyrazolo[1,5-a][1,3,5]triazin-7-one] |
| – | – | 32 µg/mL (≈ 67.7 µM) | 16 µg/mL (≈ 33.9 µM) | CC(C)(C)c1ccc(-c2nc(NCC3CN(Cc4ccccc4)CCO3)n3[nH]c(=O)cc3n2)cc1 (stereo not drawn) [Example 79, 4-{[(4-benzylmorpholin-2-yl)methyl]amino}-2-(4-tert-butylphenyl)-6H,7H-pyrazolo[1,5-a][1,3,5]triazin-7-one] |
| – | – | 16 µg/mL (≈ 40.2 µM) | 8 µg/mL (≈ 20.1 µM) | CC(C)(C)c1ccc(-c2nc(NCc3ccc(C#N)cc3)n3[nH]c(=O)cc3n2)cc1 [Example 84, 4-({[2-(4-tert-butylphenyl)-7-oxo-6H,7H-pyrazolo[1,5-a][1,3,5]triazin-4-yl]amino}methyl)benzonitrile] |
| – | – | 2 µg/mL (≈ 3.63 µM) | 1 µg/mL (≈ 1.81 µM) | Cc1cc(OCCCN(CCCN(C)C)c2nc(-c3ccc(C(C)(C)C)cc3)nc3cc(=O)[nH]n23)ccc1Cl [Example 86, 2-(4-tert-butylphenyl)-4-{[3-(4-chloro-3-methylphenoxy)propyl][3-(dimethylamino)propyl]amino}-6H,7H-pyrazolo[1,5-a][1,3,5]triazin-7-one] |
| – | – | > 128 µg/mL | 128 µg/mL (≈ 280 µM) | CC(C)(C)c1ccc(-c2nc(NCC(=O)NC3Cc4ccccc4C3)n3[nH]c(=O)cc3n2)cc1 [Example 88, 2-{[2-(4-tert-butylphenyl)-7-oxo-6H,7H-pyrazolo[1,5-a][1,3,5]triazin-4-yl]amino}-N-(2,3-dihydro-1H-inden-2-yl)acetamide] |
| – | – | 8 µg/mL (≈ 16.2 µM) | 8 µg/mL (≈ 16.2 µM) | CC(C)(C)c1ccc(-c2nc(NCC(F)(F)CNC3Cc4ccccc4C3)n3[nH]c(=O)cc3n2)cc1 [Example 89, 2-(4-tert-Butylphenyl)-4-({3-[(2,3-dihydro-1H-inden-2-yl)amino]-2,2-difluoropropyl}amino)-6H,7H-pyrazolo[1,5-a][1,3,5]triazin-7-one] |
| – | – | 32 µg/mL (≈ 70.1 µM) | 16 µg/mL (≈ 35 µM) | CC(C)(C)c1ccc(-c2nc(NCCCN3CCc4ccccc4C3)n3[nH]c(=O)cc3n2)cc1 [Example 91, 2-(4-tert-butylphenyl)-4-{[3-(1,2,3,4-tetrahydroisoquinolin-2-yl)propyl]amino}-6H,7H-pyrazolo[1,5-a][1,3,5]triazin-7-one] |
| – | – | 16 µg/mL (≈ 42.1 µM) | 8 µg/mL (≈ 21 µM) | CC(C)(C)c1nc(NCCCNC2Cc3ccccc3C2)n2[nH]c(=O)cc2n1 [Example 95, 2-tert-butyl-4-({3-[(2,3-dihydro-1H-inden-2-yl)amino]propyl}amino)-6H,7H-pyrazolo[1,5-a][1,3,5]triazin-7-one] |
| – | – | 128 µg/mL (≈ 486 µM) | 32 µg/mL (≈ 122 µM) | CCCCNc1nc(C(C)(C)C)nc2cc(=O)[nH]n12 [Example 96, 2-tert-butyl-4-(butylamino)-6H,7H-pyrazolo[1,5-a][1,3,5]triazin-7-one] |
| – | – | 128 µg/mL (≈ 336 µM) | 64 µg/mL (≈ 168 µM) | CC(C)(C)c1nc(NCCCN2CCc3ccccc3C2)n2[nH]c(=O)cc2n1 [Example 97, 2-tert-butyl-4-{[3-(1,2,3,4-tetrahydroisoquinolin-2-yl)propyl]amino}-6H,7H-pyrazolo[1,5-a][1,3,5]triazin-7-one] |
| – | – | 32 µg/mL (≈ 72 µM) | 32 µg/mL (≈ 72 µM) | CN(CCCNc1nc(-c2ccc(C(C)(C)C)cc2)nc2cc(=O)[nH]n12)Cc1ccccc1 [Example 98, 4-({3-[benzyl(methyl)amino]propyl}amino)-2-(4-tert-butylphenyl)-6H,7H-pyrazolo[1,5-a][1,3,5]triazin-7-one] |
| – | – | 64 µg/mL (≈ 140 µM) | 16 µg/mL (≈ 34.9 µM) | O=c1cc2nc(C34CC5CC(CC(C5)C3)C4)nc(NCCCN3CCc4ccccc4C3)n2[nH]1 [Example 102, 2-(adamantan-1-yl)-4-{[3-(1,2,3,4-tetrahydroisoquinolin-2-yl)propyl]amino}-6H,7H-pyrazolo[1,5-a][1,3,5]triazin-7-one] |
| – | – | 0.5 µg/mL (≈ 0.915 µM) | 2 µg/mL (≈ 3.66 µM) | CC(C)(C)c1ccc(-c2nc(NCCCNC3Cc4ccccc4C3)n3[nH]c(=O)c(Cc4ccccc4)c3n2)cc1 [Example 108, 8-benzyl-2-(4-tert-butylphenyl)-4-({3-[(2,3-dihydro-1H-inden-2-yl)amino]propyl}amino)-6H,7H-pyrazolo[1,5-a][1,3,5]triazin-7-one] |
| – | – | 4 µg/mL (≈ 7.45 µM) | 1 µg/mL (≈ 1.86 µM) | CC(C)(C)c1ccc(-c2nc(NCCCNC3Cc4ccccc4C3)n3[nH]c(=O)c(Cc4c[nH]cn4)c3n2)cc1 [Example 109, 2-(4-tert-butylphenyl)-4-({3-[(2,3-dihydro-1H-inden-2-yl)amino]propyl}amino)-8-(1H-imidazol-4-ylmethyl)-6H,7H-pyrazolo[1,5-a][1,3,5]triazin-7-one] |
| – | – | 4 µg/mL (≈ 9.53 µM) | 2 µg/mL (≈ 4.77 µM) | CCCCNc1nc(-c2ccc(C(C)(C)C)cc2)nc2c(Cc3c[nH]cn3)c(=O)[nH]n12 [Example 110, 4-(butylamino)-2-(4-tert-butylphenyl)-8-(1H-imidazol-4-ylmethyl)-6H,7H-pyrazolo[1,5-a][1,3,5]triazin-7-one] |
| – | – | 4 µg/mL (≈ 8.31 µM) | 2 µg/mL (≈ 4.15 µM) | CC(C)(C)c1ccc(-c2nc(NCCCc3ccccc3)n3[nH]c(=O)c(Cc4c[nH]cn4)c3n2)cc1 [Example 111, 2-(4-tert-butylphenyl)-8-(1H-imidazol-4-ylmethyl)-4-[(3-phenylpropyl)amino]-6H,7H-pyrazolo[1,5-a][1,3,5]triazin-7-one] |
| – | – | 32 µg/mL (≈ 71.7 µM) | 32 µg/mL (≈ 71.7 µM) | Cc1ccc(Cc2c(=O)[nH]n3c(NCCCO)nc(-c4ccc(C(C)(C)C)cc4)nc23)cn1 [Example 113, 2-(4-tert-butylphenyl)-4-[(3-hydroxypropyl)amino]-8-[(6-methylpyridin-3-yl)methyl]-6H,7H-pyrazolo[1,5-a][1,3,5]triazin-7-one] |
| – | – | 64 µg/mL (≈ 135 µM) | 64 µg/mL (≈ 135 µM) | Cc1ccc(Cc2c(=O)[nH]n3c(NCCCN(C)C)nc(-c4ccc(C(C)(C)C)cc4)nc23)cn1 [Example 114, 2-(4-tert-butylphenyl)-4-{[3-(dimethylamino)propyl]amino}-8-[(6-methylpyridin-3-yl)methyl]-6H,7H-pyrazolo[1,5-a][1,3,5]triazin-7-one] |
